The values that follow come from patent US8604048B2, “Pyridocarbazole type compounds and applications thereof” (Centre National de la Recherche Scientifique, priority 2009, dated 2013).

Experiment [1] has as its system actin network of HeLa cells. Put plainly: Stability of the actin network to a depolymerization induced by latrunculin B. The format is cell-based, Human. The procedure:
7. a step of analysis of the effect of the compound to be tested on the actin network, via incubation of HeLa cells with the compound to be tested. […] When the actin network is stabilized, the latrunculin-induced depolymerization of the actin network is limited.
The cells are grown on glass coverslips and incubated as for the tubulin staining. After elimination of the medium, the cells are washed with warm PBS then fixed, by addition of a solution of PBS/3.7% formaldehyde for 30 minutes at 37° C. The cells are washed with PBS then permeabilized with a solution of PBS/0.2% Triton X100 for 15 minutes at room temperature. After another washing with PBS, the cells are incubated with a solution of PBS/1% BSA for 30 minutes at room temperature. The cells are then incubated with phalloidin (0.165 μM final concentration) labelled with Alexa Fluor® 488 (Molecular Probes, Invitrogen) for 20 minutes at room temperature. The cells are washed a final time with PBS then dehydrated with pure ethanol. Finally, the cells are fixed to slides using a Fluorsave™ mounting solution.
8) Test for the Action on the Actin Cytoskeleton: Protocol for Evaluating, in Cells, the Stability of the Actin Network to a Depolymerization Induced by Latrunculin B
3 days before the experiment, glass coverslips are deposited under sterile conditions in 24-well microplates. In each well, HeLa cells (15 000 cells per well) in the exponential growth phase are seeded in 500 μl of RPMI medium.
PBS (phosphate buffered saline, ref. P4417, Sigma), PBS/1% BSA (bovine serum albumin, Ref. A3059, Sigma), aliquots of 15 ml, stored at −20° C.; PBS/0.2% Triton X100 (Ref. T8787, Sigma); PBS/0.01% Tween® 20 (Ref. P9916, Sigma); PBS/0.3% BSA/0.02% NaN3 (Ref. for the NaN3: 6688, Merck), aliquots of 15 ml stored at −20° C. Phalloidin A488, (Ref. A12379, Invitrogen). L4: rabbit anti-detyrosinated-tubulin polyclonal antibody (cf. Fonrose et al., Cancer Res., […], 67:3371-3378). Anti-rabbit antibody coupled to Cyanine 3 (Ref. 111.165.144, Jackson Laboratories). […]

Experiment [2] deals with LIMK1 activity in HeLa cells. Put plainly: Cellular LIMK1 activity assay (Ser3-cofilin phosphorylation, western blot). Format: cell-based, Human. As to conditions: for Inhibition of Ser3-cofilin phosphorylation in HeLa cells: 2 h, indicated concentrations. On the procedure:
HeLa cells were treated by compounds (or equivalent amount of DMSO as control) at indicated concentrations and time. Whole cell extracts were prepared using RIPA buffer (50 mM Tris-HCl pH=7.4, 150 mM NaCl, 1% NP-40, 0.5% sodium deoxycholate, 1% SDS, 1 mM EGTA, 1 mM EDTA, 5% glycerol, 1 mM DTT) supplemented with protease inhibitors (Sigma, P8340) and phosphatase inhibitors (Sigma, P5726). About thirty micrograms of proteins were loaded and migrated through a 12% SDS-PAGE. After electro-transfer, the nitrocellulose membrane was saturated with PBS, 0.1% Tween® 20, 5% Bovin Serum Albumin. Amount and phosphorylation status of cofilin were estimated using the polyclonal antibodies anti-cofilin (Cytoskeleton, #ACFLO2) and anti-phosphocofilin (Ser3) (Cell Signaling, #3311). Goat anti-rabbit IgG-HorseRadish Peroxidase conjugated (Biosource, #ALI0404) was used as secondary antibody. Detection was performed using ECL plus western blotting detection system (GE Healthcare).
HeLa cells were treated by 25 μM Compound 1 (H06) for 2 h (lane 2). Culture medium was then discarded and fresh medium (RPMI) was added. At different times after RPMI addition (lane 3, 30 minutes; lane 4, 1 hour; lane 5, 1.5 hour; lane 6, 2 hours; lane 7, 4 hours), amount and phosphorylation status of cofilin were determined as described in Example 2. The lane 1 corresponds to time “0”, i.e. a cell extract of cells that have not been treated with Compound 1.
HeLa cells were treated by indicated concentrations of Compound 1 (or ellipticine as negative control) for 2 h.
Amount and phosphorylation status of cofilin were determined as described in Example 2. In vitro phosphorylated cofilin (left) was used as control.
HeLa cells were treated by 25 μM of Compound 1 for indicated time. Amount and phosphorylation status of cofilin were determined as described in Example 2.
Background: A western blot detects proteins with antibodies after separation by electrophoresis.

`Cc1c2cc[nH]c(=O)c2c(C)c2c1[nH]c1ccc(OC(=O)c3ccccc3)cc12` [Compound 1, 9-benzoyloxy-5,11-dimethyl-2H,6H-pyrido[4,3-b]carbazol-1-one]: in experiment [1] (HeLa cells, confocal microscope), the “Protection of the actin network from depolymerization by latrunculin B” value was “protects the actin network”. Moreover, in experiment [2] (25 μM for 2 h, then replaced by RPMI medium), the “Reversibility of inhibition of Ser3-cofilin phosphorylation in HeLa cells” value is given as “phospho-cofilin is synthesized again”. The “Inhibition of Ser3-cofilin phosphorylation in HeLa cells” value in experiment [2] is “clearly inhibits the formation of phospho-cofilin, in a dose-dependent manner”. Besides, the “Treatment time after which the inhibitory effect on cofilin phosphorylation is detected” value in experiment [2] (HeLa, 25 μM) was determined as 30 min.

On to `Cc1c2ccncc2c(C)c2c1[nH]c1ccccc12` [ellipticine], for which the “Effect on the stabilization of actin microfilaments” value in experiment [1] (general statement) is “does not have any effect”. Moreover, the “Inhibition of Ser3-cofilin phosphorylation in HeLa cells” value in experiment [2] is on record as “does not avoid the phosphorylation of cofilin”.
